According to US20230059898A1 (priority 2020, published 2023):
Counter-ions that a name gives are not always drawn.

tested on: biocontrol strain ST15; format: cell-based, Bacillus altitudinis
Further: key: +: not sensitive; −: sensitive.

| Structure (SMILES) | chemical sensitivity of strain ST15 |
| --- | --- |
| [Cl-].[Na+] [1% NaCl, NaCl] | + |
| CC(O)C(=O)[O-].[Na+] (centres unmarked) [1% sodium lactate, sodium lactate] | + |
| C[C@H]1[C@H](NC(=O)/C(=N\OC(C)(C)C(=O)O)c2csc(N)n2)C(=O)N1S(=O)(=O)O [Aztreonam] | + |
| N[C@H](CO)C(=O)O [D-serine] | − |
| O=[Te]([O-])[O-].[K+].[K+] [Dipotassium trioxotellurate] | + |
| CC(=O)O[C@H]1C[C@@]2(C)[C@@H](C[C@@H](O)[C@H]3[C@@]4(C)CC[C@@H](O)[C@@H](C)[C@@H]4CC[C@@]32C)/C1=C(\CCC=C(C)C)C(=O)O [Fusidic acid] | − |
| N=C(N)N [Guanidine hydrochloride] | + |
| CCC[C@@H]1C[C@@H](C(=O)N[C@@H]([C@H]2O[C@H](SC)[C@H](O)[C@@H](O)[C@H]2O)[C@@H](C)O)N(C)C1 [Lincomycin] | + |
| [Cl-].[Li+] [Lithium chloride] | + |
| CCn1cc(C(=O)O)c(=O)c2ccc(C)nc21 [Nalidixic acid] | + |
| CO[C@H]1/C=C/O[C@@]2(C)Oc3c(C)c([O-])c4c(O)c(cc(O)c4c3C2=O)NC(=O)/C(C)=C\C=C\[C@H](C)[C@H](O)[C@@H](C)[C@@H](O)[C@@H](C)[C@H](OC(C)=O)[C@@H]1C.[Na+] [Rifamycin SV] | − |
| CCCC(=O)[O-].[Na+] [Sodium butyrate] | + |
| CCCCCCCCCCCCCCOS(=O)(=O)[O-].[Na+] [Sodium tetradecyl sulfate] | − |
| COc1cc(-c2ccc(-n3nc(-c4ccccc4)n[n+]3-c3ccccc3)c(OC)c2)ccc1-n1nc(-c2ccccc2)n[n+]1-c1ccccc1.[Cl-].[Cl-] [Tetrazolium blue] | − |
| c1ccc(-c2nn(-c3ccccc3)[n+](-c3cccc4ccccc34)n2)cc1 [Tetrazolium violet] | − |
| CO[C@H]1C[C@H](O[C@H]2[C@H](C)[C@@H](O[C@@H]3O[C@H](C)C[C@H](N(C)C)[C@H]3OC(C)=O)[C@@H](C)C[C@@]3(CO3)C(=O)[C@H](C)[C@@H](OC(C)=O)[C@@H](C)[C@@H](C)OC(=O)[C@@H]2C)O[C@@H](C)[C@@H]1OC(C)=O [Troleandomycin] | − |
| CN[C@H](CC(C)C)C(=O)N[C@H]1C(=O)N[C@@H](CC(N)=O)C(=O)N[C@H]2C(=O)N[C@H]3C(=O)N[C@H](C(=O)N[C@H](C(=O)O)c4cc(O)cc(O)c4-c4cc3ccc4O)[C@H](O)c3ccc(c(Cl)c3)Oc3cc2cc(c3O[C@@H]2O[C@H](CO)[C@@H](O)[C@H](O)[C@H]2O[C@H]2C[C@](C)(N)[C@H](O)[C@H](C)O2)Oc2ccc(cc2Cl)[C@H]1O [Vancomycin] | − |
